Source: patent US20050250175A1, “Bacterial cell wall skeleton component preparaion” (priority 2002, published 2005)

Assay: Viscosity of paste comprising BCG-CWS, co-axial bicylindrical viscometer
Assay type: physicochemical
Settings: unit not given
Experimental: “Viscosity” as used herein means a value determined by dynamic viscoelasticity measurement, for example, values obtained using a co-axial bicylindrical viscometer. In the present invention, viscosity may be measured using a co-axial bicylindrical viscometer manufactured by Rheology Co., Ltd (Model MR-300, Soliquid meter) at 25° C. under nitrogen atmosphere. One poise represents 0.1 Pa·s (pascal.sec).
The viscosity of the paste was measured at 25° C. using a co-axial bicylindrical viscometer manufactured by Rheology Co., Ltd (Model MR-300, Soliquid meter). The viscosity was measured to be 0.545 poise.

SMILES: CC(C)CCCC(C)CCCC(C)CCCCC(C)CCCC(C)CCCC(C)C (stereo not shown) [squalane]
- viscosity: 0.236
